Data taken from US8530465B2, “1, 2-disubstituted amido-anthraquinone derivatives, preparation method and application thereof” (National Defense Medical Center, priority 2010, dated 2013).

How the values were obtained:
hTERT = assay: Secreted alkaline phosphatase (SEAP) assay, PhTERT-SEAP (H1299); assay type: cell-based; details: Homo sapiens, 24 hours; for activity at 1 µM: NCI-H1299, Conc. 1 μM, read-out: Relative SEAP activity (%); for activity at 10 µM: NCI-H1299, Conc. 10 μM; for activity at 10 µM / activity at 100 µM: read-out: Relative SEAP activity (%) (converted); for activity at 100 µM: NCI-H1299, Conc. 100 μM
Protocol: H1299 were grown in RPMI 1640 media supplemented with 10% fetal bovine serum, 100 units/mL penicillin and […] streptomycin in a humidified atmosphere with 5% CO2 at 37° C. Culture media were changed every three days. To establish stable cell lines that the expression of hTERT could be monitored by a reporter system, a about 3.3 kbp DNA fragment ranging from −3338 to +1 bp of the hTERT gene (hTERT promoter, PhTERT) was subcloned upstream to a secreted alkaline phosphatase gene (SEAP) and transfected into H1299 by electroporation. The stable clones were selected using G418. The stable clones derived from H1299 were cultured using conditions that are similar to their parental cells.
Secreted alkaline phosphatase was used as the reporter system to monitor the transcriptional activity of hTERT. Here, about 10^4 cells each were grown in 96-well plates and incubated at 37° C. for 24 hours and changed with fresh media. Varying amounts of drugs were added and cells were incubated for another 24 hours. Culture media were collected and heated at 65° C. for 10 min to inactivate heat-labile phosphatases. An equal amount of SEAP buffer (2 M diethanolamine, 1 mM MgCl2, and 20 mM L-homoarginine) was added to the media and p-nitrophenyl phosphate was added to a final concentration of 12 mM. Absorptions at 405 nm were taken, and the rate of absorption increase is determined (the increasing rate of absorbance at 405 nm was used to represent the activity of SEAP).

[1] = MTT assay, PhTERT-SEAP (H1299); assay type: cell-based, human; details: human, H1299 cells carrying the PhTERT-SEAP reporter, PhTERT-SEAP (H1299); for viability at 1 μM: Conc. 1 μM, read-out: Relative MTT viability (%); for viability at 10 μM: Conc. 10 μM; for viability at 10 μM / viability at 100 μM: read-out: Relative MTT viability (%) (converted); for viability at 100 μM: Conc. 100 μM
Protocol: Further, cells were subjected to MTT assay to compare the relative toxicity or effect of each compound on cell proliferation and activity.
The above-described cells are cultured in a 96-well plate, to which was added with 25 μl MTT solution, and cultured in a 37° C. carbon dioxide incubator for 4 hours. Then, 100 μl Lysis buffer is added and incubated in a 37° C. carbon dioxide incubator overnight. An ELISA reader (Bio-Rad Model 450) is used to read optical density (O.D.) at 550 nm.

SMILES | activity at 1 µM (hTERT) | activity at 10 µM (hTERT) | activity at 100 µM (hTERT) | viability at 1 μM [1] | viability at 10 μM [1] | viability at 100 μM [1] | melting point
O=C(CCl)Nc1ccc2c(c1NC(=O)c1ccno1)C(=O)c1ccccc1C2=O [CC-29, 1-[(5-isoxazolecarbonyl)amino]-2-(chloroacetamido)-anthraquinone] | 92.5 ± 0.99% | 4.91% | 1.35% | 105 ± 7.19% | 3.47% | 0.11% | 212 to 213 °C
Cc1cc(C(=O)Nc2c(NC(=O)CCl)ccc3c2C(=O)c2ccccc2C3=O)c(C)o1 [CC-30, 1-[(2,5-dimethyl-3-furoyl)amino]-2-(chloroacetamido)-anthraquinone] | 81.2 ± 1.85% | 2.37% | 0.83% | 96 ± 2.27% | 2.93% | – | 207 to 208 °C
O=C(CCl)Nc1ccc2c(c1NC(=O)COc1ccccc1)C(=O)c1ccccc1C2=O [CC-31, 1-[2-(phenoxy)acetylamino]-2-(chloroacetamido)-anthraquinone] | 83 ± 1.98% | 72.9% | 4.7% | 101 ± 4.91% | 66.5% | 4.86% | 217 to 218 °C
O=C(CCl)Nc1ccc2c(c1NC(=O)CSc1ccccc1)C(=O)c1ccccc1C2=O [CC-32, 1-[2-(phenylsulfanyl)acetylamino]-2-(chloroacetamido)-anthraquinone] | 80 ± 4.39% | 3.89% | -0.05% | 88.5 ± 2.25% | 5.73% | – | 161 to 162 °C
O=C(CN1CCN(c2ccccc2F)CC1)Nc1ccc2c(c1NC(=O)c1ccccc1)C(=O)c1ccccc1C2=O [CC-34, 1-(benzamido)-2-[2-[4-(2-fluorophenyl)piperazino]acetylamino]-anthraquinone] | 98.7 ± 2.55% | 79.6 ± 1.35% | 15.6 ± 1.54% | 98.6 ± 2.29% | 92.3 ± 2.41% | 27.8 ± 4.82% | 228 to 229 °C
Cc1ccc(C(=O)Nc2c(NC(=O)CN(C)C)ccc3c2C(=O)c2ccccc2C3=O)cc1 [CC-35, 1-(4-methylbenzamido)-2-[2-(dimethylamino)acetylamino]-anthraquinone] | 99.5 ± 3.37% | 78.5% | 9.61% | 107 ± 2.85% | 88.4% | – | 190 to 191 °C
Cc1ccc(C(=O)Nc2c(NC(=O)CN(C)CC3OCCO3)ccc3c2C(=O)c2ccccc2C3=O)cc1 [CC-36, 1-(4-methylbenzamido)-2-[2-[(1,3-dioxolan-2-ylmethyl)(methyl)amino]acetylamino]-anthraquinone] | 101 ± 3.01% | 76.5% | 10.2% | 104 ± 2.12% | 88.6% | 3.78% | 156 to 157 °C
Cc1ccc(C(=O)Nc2c(NC(=O)CN(C)CCc3ccccn3)ccc3c2C(=O)c2ccccc2C3=O)cc1 [CC-37, 4-methyl-N-(2-(2-(methyl(2-(pyridin-2-yl)ethyl)amino)acetamido)-9,10-dioxo-9,10-dihydroanthracen-1-yl)benzamide] | 90.6 ± 1.48% | 11.9% | 1.47% | 94.9 ± 6.49% | 46.2% | 22% | 166 to 167 °C
Cc1ccc(C(=O)Nc2c(NC(=O)CN3CCCCC3)ccc3c2C(=O)c2ccccc2C3=O)cc1 [CC-39, N-(9,10-dioxo-2-(2-(piperidin-1-yl)acetamido)-9,10-dihydroanthracen-1-yl)-4-methylbenzamide] | 85.4 ± 7.56% | 70.1% | 8.3% | 86.3 ± 6.52% | 70.2% | 10.8% | 213 to 214 °C
Cc1ccc(C(=O)Nc2c(NC(=O)CN3CCC4(CC3)OCCO4)ccc3c2C(=O)c2ccccc2C3=O)cc1 [CC-40, 1-(4-methylbenzamido)-2-[2-(1,4-dioxa-8-azaspiro[4.5]dec-8-yl)acetylamino]-anthraquinone] | 78.9 ± 3.67% | 51.6% | 6.67% | 74.3 ± 6.15% | 55.5% | 16.8% | 197 to 198 °C
Cc1ccc(C(=O)Nc2c(NC(=O)CN3CCOCC3)ccc3c2C(=O)c2ccccc2C3=O)cc1 [CC-41, 1-(4-methylbenzamido)-2-[(2-morpholinoacetyl)amino]-anthraquinone] | 98.37 ± 0.9% | 54.2% | 3.75% | 81.5 ± 6.24% | 56.7% | 15.5% | 225 to 226 °C
Cc1ccc(C(=O)Nc2c(NC(=O)CN3CCSCC3)ccc3c2C(=O)c2ccccc2C3=O)cc1 [CC-42, 1-(4-methylbenzamido)-2-[2-(1,4-thiazinan-4-yl)acetylamino]-anthraquinone] | 88 ± 1.2% | 72.6% | 12.2% | 85.8 ± 7.69% | 70% | 20% | 210 to 211 °C
Cc1ccc(C(=O)Nc2c(NC(=O)CN3CCN(c4ccccc4)CC3)ccc3c2C(=O)c2ccccc2C3=O)cc1 [CC-45, 1-(4-methylbenzamido)-2-[2-(4-phenylpiperazino)acetylamino]-anthraquinone] | 93.2 ± 4.68% | 88.2% | 15.9% | 80.8 ± 6.98% | 77% | 23.2% | 270 to 271 °C
Cc1ccc(C(=O)Nc2c(NC(=O)CN3CCN(c4ccccc4F)CC3)ccc3c2C(=O)c2ccccc2C3=O)cc1 [CC-46, 1-(4-methylbenzamido)-2-[2-[4-(2-fluorophenyl)piperazino]acetylamino]-anthraquinone] | 85 ± 10.8% | 76.2% | 20.1% | 79.8 ± 9.65% | 68.7% | 40.8% | 228 to 229 °C
Cc1ccc(C(=O)Nc2c(NC(=O)CN3CCN(c4ccccc4C#N)CC3)ccc3c2C(=O)c2ccccc2C3=O)cc1 [CC-47, 1-(4-methylbenzamido)-2-[2-[4-(2-cyanophenyl)piperazino]acetylamino]-anthraquinone] | 81 ± 9.56% | 74.2% | 20.8% | 72 ± 11.1% | 60.1% | 48.2% | 238 to 239 °C
COc1ccccc1N1CCN(CC(=O)Nc2ccc3c(c2NC(=O)c2ccc(C)cc2)C(=O)c2ccccc2C3=O)CC1 [CC-48, 1-(4-methylbenzamido)-2-[2-[4-(2-methoxyphenyl)piperazino]acetylamino]-anthraquinone] | 83.3 ± 2.81% | 68.3% | 12.2% | 76.4 ± 3.95% | 78.3% | 22.7% | 215 to 216 °C
Cc1ccc(C(=O)Nc2c(NC(=O)CN3CCN(c4ccccn4)CC3)ccc3c2C(=O)c2ccccc2C3=O)cc1 [CC-49, 1-(4-methylbenzamido)-2-[2-[4-(2-pyridyl)piperazino]acetylamino]-anthraquinone] | 97.1 ± 7.43% | 64.3% | 9.96% | 105 ± 3.65% | 100% | 6.46% | 258 to 259 °C
Cc1ccc(C(=O)Nc2c(NC(=O)CN3CCN(c4ncccn4)CC3)ccc3c2C(=O)c2ccccc2C3=O)cc1 [CC-50, 1-(4-methylbenzamido)-2-[2-[4-(2-pyrimidinyl)piperazino]acetylamino]-anthraquinone] | 87.1 ± 7.97% | 79.5% | 20% | 102 ± 5.76% | 91.5% | 59% | 267 to 268 °C
